Results published in ChEMBL document CHEMBL4431301, “The Medicinal Chemistry of Dengue Virus” (J Med Chem, 2016).

Tests used:
West Nile virus [1] = assay: Antiviral activity against West Nile virus infected in african green monkey Vero cells assessed as reduction in viral titer after 42 hrs by plaque assay; assay type: functional
dengue virus type 2 [2] = assay: Antiviral activity against Dengue virus 2 NGC infected in african green monkey Vero cells assessed as reduction in viral titer after 42 hrs by plaque assay; assay type: functional
dengue virus type 2 [3] = assay: Antiviral activity against Dengue virus 2 PL046 infected in human WS1 cells by immunofluorescence analysis; assay type: functional, organism-based
dengue virus type 2 [4] = assay: Antiviral activity against Dengue virus 2 PL046 infected in mouse J774A.1 cells by immunofluorescence analysis; assay type: functional, organism-based; conditions: PL046, J774.A1
dengue virus type 2 [5] = assay: Antiviral activity against Dengue virus 2 PL046 infected in […] Hepa1-6 cells by immunofluorescence analysis; assay type: functional, organism-based; conditions: PL046, Hepa1-6
dengue virus type 2 [6] = assay: Antiviral activity against Dengue virus 2 PL046 infected in human A549 cells by immunofluorescence analysis; assay type: functional, organism-based
dengue virus type 2 [7] = assay: Antiviral activity against Dengue virus 2 infected in BHK21 cells assessed after 3 to 5 days by crystal violet staining based plaque assay; assay type: functional, organism-based; conditions: BHK-21
dengue virus type 2 [8] = assay: Antiviral activity against Dengue virus 2 infected in BHK21 cells assessed as reduction in virus replication after 24 hrs by renilla luciferase reporter gene assay; assay type: functional, organism-based; conditions: BHK-21, 24 h
[9] = Cytotoxicity against BHK21 cells after 24 hrs by CellTiter-Glo luminescent assay; assay type: cell-based, Mesocricetus auratus, BHK-21; conditions: hamster
dengue virus type 2 [10] = assay: Antiviral activity against Dengue virus 2 S221 infected in ADE AG129 mouse model assessed as protection against viral infection at 20 to 100 mg/kg, po administered thrice daily for 7 days starting 1 hr prior to viral challenge measured for 10 days; assay type: functional
dengue virus type 2 [11] = assay: Antiviral activity against Dengue virus 2 NGC infected in african green monkey Vero cells assessed as reduction in viral titer preincubated for 1 hr followed by viral infection measured after 5 days by immunoplaque assay; assay type: functional, organism-based
dengue virus type 2 [12] = assay: Antiviral activity against Dengue virus 2 NGC infected in african green monkey Vero cells assessed as reduction in viral titer preincubated for 1 hr followed by viral infection measured after 5 days by plaque assay; assay type: functional, organism-based
[13] = Oral bioavailability in Balb/c mouse at 200 mg/kg after 5 mins to 48 hrs by LC-MS/MS analysis; assay type: ADME, organism-based; conditions: in vivo
[14] = Cytotoxicity against african green monkey Vero cells; assay type: cell-based; conditions: chlorocebus sabaeus
Genome polyprotein [15] = biological target: T1, Genome polyprotein (dengue virus type 2, UniProt P29990); assay: Mixed noncompetitive inhibition of the Dengue virus 2 NS2B-NS3 protease expressed in Escherichia coli using Boc-GRR-AMC as substrate assessed as enzyme-substrate-inhibitor complex after 30 mins by Michaelis-Menten plot analysis
Genome polyprotein [16] = biological target: T1, Genome polyprotein; assay: Mixed noncompetitive inhibition of the Dengue virus 2 NS2B-NS3 protease expressed in Escherichia coli using Boc-GRR-AMC as substrate assessed as enzyme-inhibitor complex after 30 mins by spectrofluorometry
West Nile virus [17] = assay: Antiviral activity against West Nile virus 3356 infected in african green monkey Vero cells assessed as reduction in viral titer after 42 hrs by plaque assay; assay type: functional, organism-based; conditions: West Nile virus, 3356, Vero
dengue virus type 1 [18] = assay: Antiviral activity against Dengue virus 1 Western Pacific 74 infected in african green monkey Vero cells assessed as reduction in viral replication after 48 hrs by luciferase reporter gene assay; assay type: functional, organism-based; conditions: Western Pacific 74, Vero
dengue virus type 2 [19] = assay: Antiviral activity against Dengue virus 2 NGC infected in human A549 cells assessed as reduction in viral titer after 48 hrs by plaque assay; assay type: functional, organism-based; conditions: A549, 48 h
dengue virus type 1 [20] = assay: Antiviral activity against Dengue virus 1 West Pacific infected in human A549 cells assessed as reduction in viral titer after 48 hrs by plaque assay; assay type: functional, organism-based; conditions: A549, 48 h
dengue virus type 3 = assay: Antiviral activity against Dengue virus 3 34640 infected in human A549 cells assessed as reduction in viral titer after 48 hrs by plaque assay; assay type: functional, organism-based; conditions: Dengue virus, 34640, A549, 48 h
dengue virus type 4 = assay: Antiviral activity against Dengue virus 4 22713 infected in BHK21 cells assessed as reduction in viral titer after 48 hrs by plaque assay; assay type: functional, organism-based; conditions: Dengue virus, 22713, BHK-21, 48 h
dengue virus type 2 [21] = assay: Antiviral activity against Dengue virus 2 NGC infected in HeLa cells assessed as reduction in viral RNA replication after 48 hrs by luciferase assay; assay type: functional, organism-based
dengue virus type 2 [22] = assay: Antiviral activity against Dengue virus 2 infected in BHK-pD2hRucPac cells assessed as reduction in virus replication after 72 hrs by renilla luciferase reporter gene assay; assay type: functional, organism-based
[23] = Inhibition of Dengue virus 2 16681 NS5 guanylation expressed in Escherichia coliBL21(DE3) cells after 4 hrs by coomassie blue staining based SDS-PAGE method; set-up: species or system dengue virus type 2

T1 sequence (P29990 1346-1475 limits assumed): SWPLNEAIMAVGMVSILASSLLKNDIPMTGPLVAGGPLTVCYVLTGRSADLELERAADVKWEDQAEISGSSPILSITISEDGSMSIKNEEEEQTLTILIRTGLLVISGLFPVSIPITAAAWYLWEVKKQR
T1 sequence (P29990 1476-2093 limits assumed): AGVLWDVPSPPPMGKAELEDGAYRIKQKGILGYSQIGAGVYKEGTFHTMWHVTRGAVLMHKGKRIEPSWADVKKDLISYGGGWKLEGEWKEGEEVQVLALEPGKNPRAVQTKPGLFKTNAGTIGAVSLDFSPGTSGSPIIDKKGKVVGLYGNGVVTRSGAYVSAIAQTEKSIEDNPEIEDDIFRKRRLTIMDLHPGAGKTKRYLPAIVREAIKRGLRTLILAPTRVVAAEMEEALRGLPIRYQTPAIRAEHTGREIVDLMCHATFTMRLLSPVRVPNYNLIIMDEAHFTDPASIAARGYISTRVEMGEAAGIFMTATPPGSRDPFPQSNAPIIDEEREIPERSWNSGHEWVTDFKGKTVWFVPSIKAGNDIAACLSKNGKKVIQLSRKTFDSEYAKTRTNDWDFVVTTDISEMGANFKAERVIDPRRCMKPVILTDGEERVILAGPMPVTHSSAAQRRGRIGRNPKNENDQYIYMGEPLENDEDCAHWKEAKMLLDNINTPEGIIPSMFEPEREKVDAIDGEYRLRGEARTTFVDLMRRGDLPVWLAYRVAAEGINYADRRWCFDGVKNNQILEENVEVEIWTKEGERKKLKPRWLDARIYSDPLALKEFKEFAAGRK

COC(=O)c1c(-c2c(Cl)cccc2Cl)noc1-c1cnn(-c2cccc(Cl)c2)c1C(F)(F)F
EC90 (West Nile virus [1]): 0.00031 µM | EC90 (dengue virus type 2 [2]): 0.0052 µM

CCN(CCO)CCCC(C)Nc1ccnc2cc(Cl)ccc12 (stereo not given) [HYDROXYCHLOROQUINE]
IC50 (dengue virus type 2 [3]): 9.7 to 12.9 µM | IC50 (dengue virus type 2 [4]): 9.7 to 12.9 µM | IC50 (dengue virus type 2 [5]): 9.7 to 12.9 µM | IC50 (dengue virus type 2 [6]): 9.7 to 12.9 µM

CCN(CC)Cc1cc(Nc2ccnc3cc(Cl)ccc23)ccc1O [AMODIAQUINE]
EC50 (dengue virus type 2 [7]): 1.08 µM | EC50 (dengue virus type 2 [8]): 7.41 µM | CC50 at 24 h [9]: 52.1 µM

OC[C@@H]1[C@@H](O)[C@H](O)[C@@H](O)CN1CCCCCCCCC1CCCO1 (stereo not given in full)
Activity (dengue virus type 2 [10]): 100% | EC50 (dengue virus type 2 [11]): 21.7 µM

COCCCCCCCCCN1C[C@H](O)[C@@H](O)[C@H](O)[C@H]1CO
EC50 (dengue virus type 2 [12]): 17 µM | bioavailability [13]: 84% | CC50 [14]: > 500 µM

O=C1Cc2ccc(F)cc2C[C@@H]1C1=Cc2ccc(F)cc2CC1
Ki (Genome polyprotein [15]): 15 µM | Ki (Genome polyprotein [16]): 7 µM

O=C(c1ccccc1)N1N=C(c2cccs2)CC1c1ccc(Cl)cc1 (stereo not given)
EC50 (West Nile virus [17]): 28 µM | EC50 (dengue virus type 1 [18]): 17 µM

O=C1C[C@]2(C(=O)Nc3ccc(Cl)cc32)c2cnn(Cc3ccc(Cl)cc3)c2N1
EC50 (dengue virus type 2 [19]): 0.01 to 0.08 µM | EC50 (dengue virus type 1 [20]): > 20 µM | EC50 (dengue virus type 3): 0.01 to 0.08 µM | EC50 (dengue virus type 4): > 20 µM | EC50 (dengue virus type 2 [21]): 1.9 µM

CC(C)(C)c1ccc(/C=C2\SC(=S)N(CCC(=O)O)C2=O)cc1
EC50 (dengue virus type 2 [22]): 30.8 µM | IC50 [23]: 7.3 µM
